Data taken from article PMC8909834, “An Orally Bioavailable and Highly Efficacious Inhibitor of CDK9/FLT3 for the Treatment of Acute Myeloid Leukemia” (Cancers, 2022).

Legend:
Assay in all cases: Kinase Hotspot radiolabel assay
Format in all cases: biochemical
Conditions in all cases: read-out: % Residual Activity
LATS2 = biological target: T1, LATS2 (Homo sapiens, UniProt Q9NRM7)
T1 construct: purchased Reaction Biology Corporation (Kinase HotSpot)
Method in brief: (§1)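 Radiometric Hotspot screen: single test concentration of 1 µM, 369 kinases. Ki follow-up was applied only where inhibition exceeded 90%.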

CTK/MATK = biological target: T2, CTK/MATK (Homo sapiens, UniProt P42679)
T2 construct: purchased Reaction Biology Corporation (Kinase HotSpot)
T2 sequence (P42679 whole entry): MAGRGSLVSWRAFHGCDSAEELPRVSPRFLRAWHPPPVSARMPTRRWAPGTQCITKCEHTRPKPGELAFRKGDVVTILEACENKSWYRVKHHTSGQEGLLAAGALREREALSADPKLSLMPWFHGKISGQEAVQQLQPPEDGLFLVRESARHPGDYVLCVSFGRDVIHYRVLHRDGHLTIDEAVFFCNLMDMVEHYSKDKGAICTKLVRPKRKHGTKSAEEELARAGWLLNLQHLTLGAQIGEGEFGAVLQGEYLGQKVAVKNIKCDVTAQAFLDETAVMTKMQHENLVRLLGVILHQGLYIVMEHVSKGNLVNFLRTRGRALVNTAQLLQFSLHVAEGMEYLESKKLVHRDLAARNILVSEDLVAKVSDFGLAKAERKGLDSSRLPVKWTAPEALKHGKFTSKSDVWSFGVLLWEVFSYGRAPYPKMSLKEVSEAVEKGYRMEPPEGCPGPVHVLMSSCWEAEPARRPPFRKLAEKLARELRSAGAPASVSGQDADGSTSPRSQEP
Method in brief: as §1

JNK2 = biological target: T3, JNK2 (Homo sapiens, UniProt P45984)
T3 construct: purchased Reaction Biology Corporation (Kinase HotSpot)
Method in brief: as §1

MST1/STK4 = biological target: T4, MST1/STK4 (Homo sapiens, UniProt Q13043)
T4 construct: purchased Reaction Biology Corporation (Kinase HotSpot)
T4 sequence (Q13043 whole entry): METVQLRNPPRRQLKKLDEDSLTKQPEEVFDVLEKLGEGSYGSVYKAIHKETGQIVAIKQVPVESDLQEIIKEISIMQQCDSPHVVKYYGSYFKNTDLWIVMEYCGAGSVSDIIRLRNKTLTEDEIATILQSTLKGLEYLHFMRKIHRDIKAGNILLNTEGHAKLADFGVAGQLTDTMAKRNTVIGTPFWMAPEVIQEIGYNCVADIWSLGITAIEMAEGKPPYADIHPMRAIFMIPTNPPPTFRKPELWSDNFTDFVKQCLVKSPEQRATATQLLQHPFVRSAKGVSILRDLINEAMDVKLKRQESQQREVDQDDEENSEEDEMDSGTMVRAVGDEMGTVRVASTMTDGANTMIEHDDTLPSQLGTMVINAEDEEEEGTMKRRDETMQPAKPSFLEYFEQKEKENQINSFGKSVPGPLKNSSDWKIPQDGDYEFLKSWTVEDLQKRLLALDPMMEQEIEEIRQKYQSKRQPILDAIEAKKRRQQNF
Method in brief: as §1

LCK2/ICK = biological target: T5, LCK2/ICK (Homo sapiens, UniProt Q9UPZ9)
T5 construct: purchased Reaction Biology Corporation (Kinase HotSpot)
T5 sequence (Q9UPZ9 whole entry): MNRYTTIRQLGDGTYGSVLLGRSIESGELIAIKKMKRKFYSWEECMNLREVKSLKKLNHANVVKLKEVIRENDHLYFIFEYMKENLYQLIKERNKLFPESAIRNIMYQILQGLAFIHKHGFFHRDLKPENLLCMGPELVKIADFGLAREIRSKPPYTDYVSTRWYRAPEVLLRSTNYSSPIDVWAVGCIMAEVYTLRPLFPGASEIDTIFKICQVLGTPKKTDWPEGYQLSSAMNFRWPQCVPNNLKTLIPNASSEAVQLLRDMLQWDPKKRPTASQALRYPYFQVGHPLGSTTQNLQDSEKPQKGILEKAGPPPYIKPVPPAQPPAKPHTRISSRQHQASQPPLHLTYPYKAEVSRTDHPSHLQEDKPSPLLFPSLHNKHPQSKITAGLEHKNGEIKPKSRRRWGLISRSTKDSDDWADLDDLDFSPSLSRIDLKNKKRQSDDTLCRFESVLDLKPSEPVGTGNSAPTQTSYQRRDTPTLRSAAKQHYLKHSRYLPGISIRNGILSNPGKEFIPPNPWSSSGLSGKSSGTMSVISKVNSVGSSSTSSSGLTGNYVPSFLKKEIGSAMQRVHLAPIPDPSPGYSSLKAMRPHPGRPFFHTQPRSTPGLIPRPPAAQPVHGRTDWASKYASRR
Method in brief: as §1

SLK/STK2 = biological target: T6, SLK/STK2 (Homo sapiens, UniProt Q9H2G2)
T6 construct: purchased Reaction Biology Corporation (Kinase HotSpot)
Method in brief: as §1

HIPK4 = biological target: T7, HIPK4 (Homo sapiens, UniProt Q8NE63)
T7 construct: purchased Reaction Biology Corporation (Kinase HotSpot)
Method in brief: as §1

EPHA2 = biological target: T8, EPHA2 (Homo sapiens, UniProt P29317)
T8 construct: purchased Reaction Biology Corporation (Kinase HotSpot)
Method in brief: as §1

CHK1 = biological target: T9, CHK1 (Homo sapiens, UniProt O14757)
T9 construct: purchased Reaction Biology Corporation (Kinase HotSpot)
Method in brief: as §1

LKB1 = biological target: T10, LKB1 (Homo sapiens, UniProt Q15831)
T10 construct: purchased Reaction Biology Corporation (Kinase HotSpot)
Method in brief: as §1

ERK1 = biological target: T11, ERK1 (Homo sapiens, UniProt P27361)
T11 construct: purchased Reaction Biology Corporation (Kinase HotSpot)
Method in brief: as §1

ARK5/NUAK1 = biological target: T12, ARK5/NUAK1 (Homo sapiens, UniProt O60285)
T12 construct: purchased Reaction Biology Corporation (Kinase HotSpot)
Method in brief: as §1

c-MER = biological target: T13, c-MER (Homo sapiens, UniProt Q12866)
T13 construct: purchased Reaction Biology Corporation (Kinase HotSpot)
T13 sequence (Q12866 21-999): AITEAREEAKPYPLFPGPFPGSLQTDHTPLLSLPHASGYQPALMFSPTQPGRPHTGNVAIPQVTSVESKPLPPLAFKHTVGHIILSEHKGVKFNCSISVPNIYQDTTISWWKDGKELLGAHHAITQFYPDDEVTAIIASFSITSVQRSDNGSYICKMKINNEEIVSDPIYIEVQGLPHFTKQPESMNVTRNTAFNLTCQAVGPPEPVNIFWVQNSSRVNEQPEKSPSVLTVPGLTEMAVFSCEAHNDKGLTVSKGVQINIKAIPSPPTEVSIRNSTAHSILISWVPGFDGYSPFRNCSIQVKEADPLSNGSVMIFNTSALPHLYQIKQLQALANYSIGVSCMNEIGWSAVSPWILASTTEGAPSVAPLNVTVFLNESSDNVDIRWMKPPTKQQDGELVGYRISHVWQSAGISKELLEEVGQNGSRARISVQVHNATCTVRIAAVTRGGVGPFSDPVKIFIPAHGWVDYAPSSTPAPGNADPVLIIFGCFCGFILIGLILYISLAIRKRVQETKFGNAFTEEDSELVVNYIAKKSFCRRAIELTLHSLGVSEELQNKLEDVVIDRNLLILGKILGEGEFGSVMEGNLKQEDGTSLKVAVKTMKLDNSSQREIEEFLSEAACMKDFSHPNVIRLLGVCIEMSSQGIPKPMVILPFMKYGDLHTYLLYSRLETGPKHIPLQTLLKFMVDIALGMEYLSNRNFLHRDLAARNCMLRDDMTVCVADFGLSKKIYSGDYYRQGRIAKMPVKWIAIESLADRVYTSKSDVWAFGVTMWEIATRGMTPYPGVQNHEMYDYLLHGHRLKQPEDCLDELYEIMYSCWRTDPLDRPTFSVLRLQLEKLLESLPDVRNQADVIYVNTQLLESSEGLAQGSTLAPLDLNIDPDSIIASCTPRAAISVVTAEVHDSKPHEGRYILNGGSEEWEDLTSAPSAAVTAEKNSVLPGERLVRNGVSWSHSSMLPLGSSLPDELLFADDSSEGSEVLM
Method in brief: as §1

GRK7 = biological target: T14, GRK7 (Homo sapiens, UniProt Q8WTQ7)
T14 construct: purchased Reaction Biology Corporation (Kinase HotSpot)
T14 sequence (Q8WTQ7 whole entry): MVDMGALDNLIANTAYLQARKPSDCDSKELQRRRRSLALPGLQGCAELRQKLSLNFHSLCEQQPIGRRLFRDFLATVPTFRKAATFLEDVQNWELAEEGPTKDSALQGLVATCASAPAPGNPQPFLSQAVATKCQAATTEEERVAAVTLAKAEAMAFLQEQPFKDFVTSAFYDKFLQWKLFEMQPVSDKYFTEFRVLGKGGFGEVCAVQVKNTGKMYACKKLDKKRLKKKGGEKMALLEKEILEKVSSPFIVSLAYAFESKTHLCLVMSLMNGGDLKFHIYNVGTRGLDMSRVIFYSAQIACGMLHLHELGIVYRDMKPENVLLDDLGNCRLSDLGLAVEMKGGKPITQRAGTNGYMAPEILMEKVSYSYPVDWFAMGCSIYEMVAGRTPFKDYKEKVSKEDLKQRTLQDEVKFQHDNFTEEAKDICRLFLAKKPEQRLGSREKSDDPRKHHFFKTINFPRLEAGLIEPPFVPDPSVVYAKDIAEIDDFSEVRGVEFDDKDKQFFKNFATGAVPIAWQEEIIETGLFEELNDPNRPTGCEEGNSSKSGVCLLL
Method in brief: as §1

PLK4/SAK = biological target: T15, PLK4/SAK (Homo sapiens, UniProt O00444)
T15 construct: purchased Reaction Biology Corporation (Kinase HotSpot)
Method in brief: as §1

MINK/MINK1 = biological target: T16, MINK/MINK1 (Homo sapiens, UniProt Q8N4C8)
T16 construct: purchased Reaction Biology Corporation (Kinase HotSpot)
Method in brief: as §1

CHK2 = biological target: T17, CHK2 (Homo sapiens, UniProt O96017)
T17 construct: purchased Reaction Biology Corporation (Kinase HotSpot)
T17 sequence (O96017 whole entry): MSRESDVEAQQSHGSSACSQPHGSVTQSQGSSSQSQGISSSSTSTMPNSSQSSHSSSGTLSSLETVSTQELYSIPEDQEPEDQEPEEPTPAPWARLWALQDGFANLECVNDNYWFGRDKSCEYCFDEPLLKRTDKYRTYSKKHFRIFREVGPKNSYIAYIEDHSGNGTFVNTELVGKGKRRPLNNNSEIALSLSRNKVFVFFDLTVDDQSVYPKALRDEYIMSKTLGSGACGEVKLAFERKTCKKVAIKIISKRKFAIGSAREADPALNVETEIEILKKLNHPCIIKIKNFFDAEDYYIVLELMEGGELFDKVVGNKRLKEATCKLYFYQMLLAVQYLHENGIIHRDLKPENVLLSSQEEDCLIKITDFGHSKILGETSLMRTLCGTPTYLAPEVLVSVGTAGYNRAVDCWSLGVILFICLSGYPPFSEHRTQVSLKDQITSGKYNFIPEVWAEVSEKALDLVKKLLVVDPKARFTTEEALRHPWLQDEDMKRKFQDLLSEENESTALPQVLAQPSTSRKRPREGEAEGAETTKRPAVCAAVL
Method in brief: as §1

PHKg2 = biological target: T18, PHKg2 (Homo sapiens, UniProt P15735)
T18 construct: purchased Reaction Biology Corporation (Kinase HotSpot)
Method in brief: as §1

RET = biological target: T19, RET (Homo sapiens, UniProt P07949)
T19 construct: purchased Reaction Biology Corporation (Kinase HotSpot)
Method in brief: as §1

CK1g1 = biological target: T20, CK1g1 (Homo sapiens, UniProt Q9HCP0)
T20 construct: purchased Reaction Biology Corporation (Kinase HotSpot)
Method in brief: as §1

TRKB = biological target: T21, TRKB (Homo sapiens, UniProt Q16620)
T21 construct: purchased Reaction Biology Corporation (Kinase HotSpot)
Method in brief: as §1

MARK3 = biological target: T22, MARK3 (Homo sapiens, UniProt P27448)
T22 construct: purchased Reaction Biology Corporation (Kinase HotSpot)
Method in brief: as §1

MLCK2/MYLK2 = biological target: T23, MLCK2/MYLK2 (Homo sapiens, UniProt Q9H1R3)
T23 construct: purchased Reaction Biology Corporation (Kinase HotSpot)
Method in brief: as §1

CK1d = biological target: T24, CK1d (Homo sapiens, UniProt P48730)
T24 construct: purchased Reaction Biology Corporation (Kinase HotSpot)
T24 sequence (P48730 whole entry): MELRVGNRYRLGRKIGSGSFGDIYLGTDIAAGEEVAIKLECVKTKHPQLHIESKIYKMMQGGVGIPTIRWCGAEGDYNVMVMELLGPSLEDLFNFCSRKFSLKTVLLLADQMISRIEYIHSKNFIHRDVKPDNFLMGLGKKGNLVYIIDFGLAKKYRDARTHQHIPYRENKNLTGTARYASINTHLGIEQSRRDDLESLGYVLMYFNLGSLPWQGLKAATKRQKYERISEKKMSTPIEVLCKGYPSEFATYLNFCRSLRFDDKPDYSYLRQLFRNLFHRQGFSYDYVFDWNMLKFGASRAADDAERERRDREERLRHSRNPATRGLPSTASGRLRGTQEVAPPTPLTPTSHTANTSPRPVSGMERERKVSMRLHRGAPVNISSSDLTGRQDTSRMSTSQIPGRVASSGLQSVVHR
Method in brief: as §1

BMPR2 = biological target: T25, BMPR2 (Homo sapiens, UniProt Q13873)
T25 construct: purchased Reaction Biology Corporation (Kinase HotSpot)
Method in brief: as §1

MRCKb/CDC42BPB = biological target: T26, MRCKb/CDC42BPB (Homo sapiens, UniProt Q9Y5S2)
T26 construct: purchased Reaction Biology Corporation (Kinase HotSpot)
Method in brief: as §1

CK2a = biological target: T27, CK2a (Homo sapiens, UniProt P68400)
T27 construct: purchased Reaction Biology Corporation (Kinase HotSpot)
T27 sequence (P68400 whole entry): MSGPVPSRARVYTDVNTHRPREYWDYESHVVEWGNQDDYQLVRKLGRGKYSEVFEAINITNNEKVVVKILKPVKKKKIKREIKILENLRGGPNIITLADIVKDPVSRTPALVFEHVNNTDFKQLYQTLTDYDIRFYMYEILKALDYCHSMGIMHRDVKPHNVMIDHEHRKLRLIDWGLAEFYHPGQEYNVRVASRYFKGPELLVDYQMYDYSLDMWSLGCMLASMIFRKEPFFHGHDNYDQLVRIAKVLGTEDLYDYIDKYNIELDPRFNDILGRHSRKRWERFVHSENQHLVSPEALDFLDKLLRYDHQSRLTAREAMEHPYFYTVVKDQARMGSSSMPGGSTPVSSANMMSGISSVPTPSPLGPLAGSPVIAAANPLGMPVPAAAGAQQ
Method in brief: as §1

VRK2 = biological target: T28, VRK2 (Homo sapiens, UniProt Q86Y07)
T28 construct: purchased Reaction Biology Corporation (Kinase HotSpot)
T28 sequence (Q86Y07 whole entry): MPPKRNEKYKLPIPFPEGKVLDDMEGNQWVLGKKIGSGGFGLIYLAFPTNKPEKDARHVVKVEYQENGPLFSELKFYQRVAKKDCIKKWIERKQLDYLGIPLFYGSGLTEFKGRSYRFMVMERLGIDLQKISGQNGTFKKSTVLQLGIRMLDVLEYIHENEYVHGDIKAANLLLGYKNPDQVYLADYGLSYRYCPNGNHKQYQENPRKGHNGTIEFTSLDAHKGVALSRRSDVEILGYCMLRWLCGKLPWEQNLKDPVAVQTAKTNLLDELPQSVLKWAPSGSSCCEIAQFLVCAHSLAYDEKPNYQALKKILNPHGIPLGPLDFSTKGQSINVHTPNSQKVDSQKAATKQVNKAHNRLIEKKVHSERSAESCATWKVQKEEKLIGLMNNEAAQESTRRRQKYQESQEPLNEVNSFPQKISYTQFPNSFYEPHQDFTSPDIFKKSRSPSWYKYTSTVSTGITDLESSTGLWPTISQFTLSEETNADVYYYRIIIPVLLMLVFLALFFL
Method in brief: as §1

DAPK1 = biological target: T29, DAPK1 (Homo sapiens, UniProt P53355)
T29 construct: purchased Reaction Biology Corporation (Kinase HotSpot)
Method in brief: as §1

PAK3 = biological target: T30, PAK3 (Homo sapiens, UniProt O75914)
T30 construct: purchased Reaction Biology Corporation (Kinase HotSpot)
Method in brief: as §1

Work on `Cc1cnc(N[C@H]2CC[C@H](N)CC2)nc1-c1cnc2ccc(-c3ccccc3)cn12` [CDDD11-8] yielded a remaining activity at 1 µM (LATS2) of 30.2%, a remaining activity at 1 µM (CTK/MATK) of 123% and a remaining activity at 1 µM (JNK2) of 103%. The remaining activity at 1 µM (MST1/STK4) was 8.89%, the remaining activity at 1 µM (LCK2/ICK) was 62.4% and the remaining activity at 1 µM (SLK/STK2) was 89.8%. The remaining activity at 1 µM (HIPK4) was 52.4%, the remaining activity at 1 µM (EPHA2) was 86.4% and the remaining activity at 1 µM (CHK1) was 95.2%. The remaining activity at 1 µM (LKB1) was 102%, the remaining activity at 1 µM (ERK1) was 97.3% and the remaining activity at 1 µM (ARK5/NUAK1) was 7.93%. For the same compound, the remaining activity at 1 µM (c-MER) was 52.3%, the remaining activity at 1 µM (GRK7) was 70.7% and the remaining activity at 1 µM (PLK4/SAK) was 89.3%. It also gave a remaining activity at 1 µM (MINK/MINK1) of 8.86%, a remaining activity at 1 µM (CHK2) of 97.2% and a remaining activity at 1 µM (PHKg2) of 93.9%. It also gave a remaining activity at 1 µM (RET) of 84.4%, a remaining activity at 1 µM (CK1g1) of 62.8% and a remaining activity at 1 µM (TRKB) of 10.8%. For the same compound, the remaining activity at 1 µM (MARK3) was 37%, the remaining activity at 1 µM (MLCK2/MYLK2) was 25.9% and the remaining activity at 1 µM (CK1d) was 17.6%. It also gave a remaining activity at 1 µM (BMPR2) of 90.2%, a remaining activity at 1 µM (MRCKb/CDC42BPB) of 79.3% and a remaining activity at 1 µM (CK2a) of 80.3%. For the same compound, the remaining activity at 1 µM (VRK2) was 35.7%, the remaining activity at 1 µM (DAPK1) was 96.1% and the remaining activity at 1 µM (PAK3) was 87.5%.
